This note sets out measurements from patent US8809369B2, “Tetrahydroquinoline derivatives” (Hoffmann-La Roche Inc., priority 2011, dated 2014).

The test system of assay [1] is ACC (acetyl-CoA carboxylase). The assay is described as follows: p-ACC expression level in L6 cell line by Western blot. The settings on record: Rattus norvegicus, L6 cells, 2 hours compound treatment, read-out: Activity AC1.3 (ACCp). The assay is classed as cell-based. On the procedure: (§1) Evaluation of p-AMPK and p-ACC expression level in L6 cell line by Western-Blot
(§2) This method evaluates the changes of AMP-activated protein kinase (AMPK) and ACC (acetyl-CoA carboxylase) activity by small molecular modulators through detecting the level of p-AMPK and p-ACC proteins in L6 cells using Western blot.
(§3) L6 cells are maintained in DMEM medium supplemented with 10% FBS in 10-cm dishes. Prior to compounds treatment, L6 cells are seeded in 12-well-plates at concentration of 3×10^4 cells per well. After 24 hours of incubation in 12-well plates, L6 cells are differentiated by replacing the 10% FBS-DMEM medium with 2% FBS-DMEM. Differentiation usually takes 5 days, during which the culture medium is changed every 2 days.
(§4) The compound concentrations typically range from 32 μM to 0.5 μM with 2-fold dilution in 2 ml DMEM and 7 doses. The final DMSO concentration is 0.4%. Berberine is used as a positive control at concentration of 16 μM. Before compound treatment, starve L6 cells for 2 hours by replacing the medium with DMEM, and then gently aspirate the media from each well. Add the compounds into the plates and incubate at 37 degree 5% CO2 for 2 hours.
(§5) Prepare lysis buffer (RIPA buffer with protease-inhibitors and phosphorate-inhibitors) and place it on ice. After two hour's compound treatment, aspirate the medium from 12-well plates, add 70 ul lysis buffer to each well and keep the plates on ice for 5 min. Then scrape the cell lysate off the plates and transfer it to 1.5 ml eppendorf tubes. Keep the tube on ice for more 10 min, centrifugate the lysate at 13000 rpm, 4 degrees for 15 min and transfer the supernatant to clean tubes.
(§6) Determine protein concentration for each sample using Quickstart Bradford protein quantitation kit. Mix 20 ug protein sample with 4 times loading buffer, heat them at 100° C. for 5 min, store the sample in −80° C. or perform Western blot assay directly. For Western blot assay, load 20 ug samples and 10 ul Pre-stained Protein Maker into 4-12% SDS-PAGE gradient gel. Run the samples at 100 V in the stacking gel and at 120 V in resolving gel until the Bromophenol dye reaches the bottom. Transfer the electrophoresed proteins to a PVDF membrane using Bio-Rad's Transblot for 120 min at 300 mA. Following the completion of transfer, the membrane is blocked with 5% non-fat milk for 2 hours at room temperature before incubated with primary antibody (p-AMPK and p-ACC) at 4° C. overnight. On the next day wash the membrane twice with TBST, add secondary antibody and incubate for 1 hour at room temperature. Wash the membrane twice with TBST. Develop p-AMPK and p-ACC protein expression level on the film in dark room with Amersham ECL plus kit. The bands of each sample are quantitated by Bio-Rad system, The AC1.3 value is analyzed using Prism 5.0.

Assay [2] has as its system AMP-activated protein kinase (AMPK). The assay can be described thus: p-AMPK expression level in L6 cell line by Western blot. The assay is classed as cell-based. As to conditions: L6 cells, 2 hours compound treatment. On the procedure:
as §1, §2, §3, §4, §5, §6
For orientation: Immunoblotting shows a protein as a band on a membrane.

Turning to `CC1(C)CC(c2cccc(N3CCOC3=O)c2)Nc2c(C(=O)NS(=O)(=O)C3CC3)cc(Cl)cc21` (stereo not shown) [Example 65, Cyclopropanesulfonic acid {6-chloro-4,4-dimethyl-2-[3-(2-oxo-oxazolidin-3-yl)-phenyl]-1,2,3,4-tetrahydro-quinoline-8-carbonyl}-amide], the EC (1.3-fold) in assay [1] was found to be 12.8 µM.
Same read-out and setting: the value for `CCc1ccc(N2CCOCC2)cc1C1CC(C)(C)c2cc(C(=O)NS(=O)(=O)C3CC3)ccc2N1` (stereo not shown) [Example 47, Cyclopropanesulfonic acid [2-(2-ethyl-5-morpholin-4-yl-phenyl)-4,4-dimethyl-1,2,3,4-tetrahydro-quinoline-6-carbonyl]-amide] was 62.4 µM; that for `CC1(C)CC(c2cccc(N3CCNCC3)c2)Nc2ccc(S(=O)(=O)N3CCOCC3)cc21` (stereo not shown) [Example 14, 4,4-Dimethyl-6-(morpholine-4-sulfonyl)-2-(3-piperazin-1-yl-phenyl)-1,2,3,4-tetrahydro-quinoline] was 4.7 µM.
The same measure, in the same setting: with `CC1(C)CC(c2cccc(N3CCOCC3)c2)Nc2ccc(C(=O)NS(=O)(=O)C3CC3)cc21` (stereo not shown) [Example 1, Cyclopropanesulfonic acid [4,4-dimethyl-2-(3-morpholin-4-yl-phenyl)-1,2,3,4-tetrahydro-quinoline-6-carbonyl]-amide] the figure was 1.4 µM.
Take `CC1(C)CC(c2cccc(N3CCOCC3)c2)Nc2c(C(=O)NS(=O)(=O)C3CC3)cc(Cl)cc21` (stereo not shown) [Example 63, Cyclopropanesulfonic acid [6-chloro-4,4-dimethyl-2-(3-morpholin-4-yl-phenyl)-1,2,3,4-tetrahydro-quinoline-8-carbonyl]-amide]: in assay [1], the EC (1.3-fold) was determined as 5.2 µM.
Take `CC1(C)CC(c2cc(F)cc(N3CCOCC3)c2)Nc2ccc(C(=O)NS(=O)(=O)C3CC3)cc21` (stereo not shown) [Example 6, Cyclopropanesulfonic acid [2-(3-fluoro-5-morpholin-4-yl-phenyl)-4,4-dimethyl-1,2,3,4-tetrahydro-quinoline-6-carbonyl]-amide]: the EC (1.3-fold) in assay [1] came out at 3.5 µM.
Still for that read-out and setting: the value for `CC(C)(C)c1ccc(-c2cncc(C3CC(C)(C)c4cc(C(=O)NS(C)(=O)=O)ccc4N3)c2)cc1` (stereo not shown) [Example 73, N-{2-[5-(4-tert-butyl-phenyl)-pyridin-3-yl]-4,4-dimethyl-1,2,3,4-tetrahydro-quinoline-6-carbonyl}-methanesulfonamide] was 0.1 µM.
Same read-out and setting: the value for `CC(C)S(=O)(=O)NC(=O)c1ccc2c(c1)C(C)(C)CC(c1cccc(N3CCOCC3)c1)N2` (stereo not shown) [Example 9, Propane-2-sulfonic acid [4,4-dimethyl-2-(3-morpholin-4-yl-phenyl)-1,2,3,4-tetrahydro-quinoline-6-carbonyl]-amide] was 4.5 µM; that for `CC(C)Oc1ccc(-c2cccc(C3CC(C)(C)c4cc(C(=O)NS(C)(=O)=O)ccc4N3)c2)cc1` (stereo not shown) [Example 45, N-[2-(4′-isopropoxy-biphenyl-3-yl)-4,4-dimethyl-1,2,3,4-tetrahydro-quinoline-6-carbonyl]-methanesulfonamide] was less than 8 µM.
For `CC1(C)CC(c2cccc(N3CCOCC3)c2)Nc2c(C(=O)NS(C)(=O)=O)cc(Cl)cc21` (stereo not shown) [Example 62, N-[6-chloro-4,4-dimethyl-2-(3-morpholin-4-yl-phenyl)-1,2,3,4-tetrahydro-quinoline-8-carbonyl]-methanesulfonamide], the EC (1.3-fold) in assay [1] came to 68 µM.
On the same count and under the same terms, the value for `CC(C)NS(=O)(=O)c1ccc2c(c1)C(C)(C)CC(c1cccc(N3CCOCC3)c1)N2` (stereo not shown) [Example 13, 4,4-Dimethyl-2-(3-morpholin-4-yl-phenyl)-1,2,3,4-tetrahydro-quinoline-6-sulfonic acid isopropylamide] was 0.4 µM.
Still for that read-out and setting: with `CC1(C)CC(c2cccc(N3CCCC3)c2)Nc2c(C(=O)NS(=O)(=O)C3CC3)cc(F)cc21` (stereo not shown) [Example 70, Cyclopropanesulfonic acid [6-fluoro-4,4-dimethyl-2-(3-pyrrolidin-1-yl-phenyl)-1,2,3,4-tetrahydro-quinoline-8-carbonyl]-amide] the figure was 0.57 µM; with `CC1(C)CC(c2cccc(N3CCCC3)c2)Nc2c(C(=O)NS(C)(=O)=O)cc(F)cc21` (stereo not shown) [Example 69, N-[6-fluoro-4,4-dimethyl-2-(3-pyrrolidin-1-yl-phenyl)-1,2,3,4-tetrahydro-quinoline-8-carbonyl]-methanesulfonamide], 0.1 µM.
Same read-out and setting: with `CC1(C)CC(c2cccc(-c3nnnn3C3CC3)c2)Nc2ccc(C(=O)NS(=O)(=O)C3CC3)cc21` (stereo not shown) [Example 41, Cyclopropanesulfonic acid {2-[3-(1-cyclopropyl-1H-tetrazol-5-yl)-phenyl]-4,4-dimethyl-1,2,3,4-tetrahydro-quinoline-6-carbonyl}-amide] the figure was 1.16 µM; with `CC1(C)CC(c2cccc(N3CCN(c4ccccc4F)CC3)c2)Nc2c(C(=O)NS(=O)(=O)C3CC3)cc(F)cc21` (stereo not shown) [Example 60, Cyclopropanesulfonic acid (6-fluoro-2-{3-[4-(2-fluoro-phenyl)-piperazin-1-yl]-phenyl}-4,4-dimethyl-1,2,3,4-tetrahydro-quinoline-8-carbonyl)-amide], 7.33 µM; with `CC1(c2ccccc2)CC(c2ccc(F)c(Cl)c2)Nc2ccc(C(=O)NS(C)(=O)=O)cc21` (stereo not shown) [Example 7, N-[2-(3-chloro-4-fluoro-phenyl)-4-methyl-4-phenyl-1,2,3,4-tetrahydro-quinoline-6-carbonyl]-methanesulfonamide], less than 16 µM.
For `CC1(C)CC(c2cccc(N3CCOCC3)c2)Nc2c(C(=O)NS(=O)(=O)C3CC3)cccc21` (stereo not shown) [Example 11, Cyclopropanesulfonic acid [4,4-dimethyl-2-(3-morpholin-4-yl-phenyl)-1,2,3,4-tetrahydro-quinoline-8-carbonyl]-amide], the EC (1.3-fold) in assay [1] amounted to 0.3 µM.
On the same count and under the same terms, the value for `CCCS(=O)(=O)NC(=O)c1ccc2c(c1)C(C)(C)CC(c1ccc(F)c(Cl)c1)N2` (stereo not shown) [Example 8, Propane-1-sulfonic acid [2-(3-chloro-4-fluoro-phenyl)-4,4-dimethyl-1,2,3,4-tetrahydro-quinoline-6-carbonyl]-amide] was less than 32 µM; that for `CC(C)(C)c1ccc(-c2cccc(C3CC(C)(C)c4cc(C(=O)NS(C)(=O)=O)ccc4N3)c2)cc1` (stereo not shown) [Example 39, N-[2-(4′-tert-butyl-biphenyl-3-yl)-4,4-dimethyl-1,2,3,4-tetrahydro-quinoline-6-carbonyl]-methanesulfonamide] was 1.4 µM.
Take `Cc1ccc(N2CCOC2=O)cc1C1CC(C)(C)c2cc(C(=O)NS(C)(=O)=O)ccc2N1` (stereo not shown) [Example 27, N-{4,4-dimethyl-2-[2-methyl-5-(2-oxo-oxazolidin-3-yl)-phenyl]-1,2,3,4-tetrahydro-quinoline-6-carbonyl}-methanesulfonamide]: the “Activity AC1.3 (AMPKp)” value in assay [2] worked out at 0.01 µM.
On the same count and under the same terms, the value for `CC(C)(Nc1cccc(C2CC(C)(C)c3cc(S(=O)(=O)NC4CCC4)ccc3N2)c1)C(=O)O` (stereo not shown) [Example 85, 2-[3-(6-Cyclobutylsulfamoyl-4,4-dimethyl-1,2,3,4-tetrahydro-quinolin-2-yl)-phenylamino]-2-methyl-propionic acid] was 0.03 µM; that for `CC1(C)CC(c2cccc(NC3(C(=O)O)CC3)c2)Nc2ccc(S(=O)(=O)NC3CCC3)cc21` (stereo not shown) [Example 84, 1-[3-(6-Cyclobutylsulfamoyl-4,4-dimethyl-1,2,3,4-tetrahydro-quinolin-2-yl)-phenylamino]-cyclopropanecarboxylic acid] was 0.2 µM.
